Measurements taken from US20240269298A1, “PHOSPHONYL DERIVATIVE, AND COMPOSITION AND PHARMACEUTICAL APPLICATION THEREOF” (XIZANG HAISCO PHARMACEUTICAL CO., LTD., priority 2021, published 2024).
Read-outs that look alike come from different tables or passages of the source.

Experiments:
[1] = Pharmacokinetic test in mice; assay type: in vivo; conditions: male, ICR, mouse, po, administration i.g. (10 mg/kg), plasma
Experimental: Test objective: In this experiment, a single dose of test compounds was administered to ICR mice intravenously and intragastrically, the concentrations of the test compounds in plasma of mice were measured, and the pharmacokinetic characteristics and bioavailability of the test compounds in mice were evaluated.
Experimental animals: male ICR mice, 20-25 g, purchased from BEIJING HFK BIOSCIENCE CO., LTD. with the laboratory animal production license number of SCXK (JING) 2019-0008; or purchased from CHENGDU DDOSSY EXPERIMENTAL ANIMALS CO., LTD. (SCXK (CHUAN) 2020-030); or purchased from HUNAN SJA LABORATORY ANIMAL CO., LTD. (SCXK (XIANG) 2019-0004).
Experimental method: on the day of the experiment, ICR mice were randomly grouped according to their body weights. The mice were fasted with water available for 12 to 14 hours one day before the administration, and were fed 4 hours after the administration.
Sampling: before and after the administration, blood was taken from the orbits of the mice under isoflurane anesthesia, and placed in an EDTAK2 centrifuge tube. Centrifugation was carried out at 5000 rpm at 4° C. for 10 min, and the plasma was collected.
Time points for plasma collection in G1&G2 groups: 0, 5 min, 15 min, 30 min, 1h, 2h, 4h, 6h, 8h, and 24 h; • time points for plasma collection in G3 group: 0, 5 min, 15 min, 30 min, 1 h, 2 h, 4 h, 6h, 8h, and 24 h; • before analysis and detection, all samples were stored at −80° C. The samples were analyzed quantitatively by LC-MS/MS.

A431 (EGFR-WT) cells = assay: Inhibitory activity on proliferation of A431 (EGFR-WT) cells (CTG, 72 h); assay type: cell-based; conditions: Homo sapiens, A-431
Outline: (§1)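 IC50 values come from S-shaped dose-survival fits of CTG signal expressed as % of vehicle. Compound exposure lasted 72 h at 37 °C with 0.1% DMSO; seeding was 3000 A431 cells/well in DMEM+10% FBS and 1000 NCI-H1975 cells/well in RPMI1640+10% FBS.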

[2] = system: NCI-H1975 (EGFR-L858R-T790M) cells; assay: Inhibitory activity on proliferation of NCI-H1975 (EGFR-L858R-T790M) cells (CTG, 72 h); assay type: cell-based; conditions: Homo sapiens
Outline: as §1

[3] = read-out: IC50 (value in brackets)

AUC(0-t) [1]	IC50 (A431 (EGFR-WT) cells)	IC50 ([2]; read-out: IC50 (class symbol))	IC50 [2, 3]	SMILES
2340 ng·h/mL	≥ 10000 nM	< 100 nM	45 nM	COc1cc(N2CCC(N3CCN(CC4CCN(c5cc6c(cc5F)C(=O)N(C5CCC(=O)NC5=O)C6=O)CC4)CC3)CC2)c(-c2cnn(C)c2)cc1Nc1ncc(Br)c(Nc2ccc(-c3ccccc3)cc2P(C)(C)=O)n1 (stereo not drawn) [Compound 87, 5-(4-((4-(1-(4-((5-bromo-4-((3-(dimethylphosphoryl)-[1,1′-biphenyl]-4-yl)amino)pyrimidin-2-yl)amino)-5-methoxy-2-(1-methyl-1H-pyrazol-4-yl)phenyl)piperidin-4-yl)piperazin-1-yl)methyl)piperidin-1-yl)-2-(2,6-dioxopiperidin-3-yl)-6-fluoroisoindoline-1,3-dione]
5120 ng·h/mL	≥ 10000 nM	< 100 nM	67 nM	COc1cc(N2CCC(N3CCC4(CCCN(c5cc6c(cc5F)C(=O)N(C5CCC(=O)NC5=O)C6=O)C4)CC3)CC2)c(-c2cnn(C)c2)cc1Nc1ncc(Br)c(Nc2ccc(-c3ccccc3)cc2P(C)(C)=O)n1 (stereo not drawn) [Compound 88, 5-(9-(1-(4-((5-bromo-4-((3-(dimethylphosphoryl)-[1,1′-biphenyl]-4-yl)amino)pyrimidin-2-yl)amino)-5-methoxy-2-(1-methyl-1H-pyrazol-4-yl)phenyl)piperidin-4-yl)-2,9-diazaspiro[5.5]undecan-2-yl)-2-(2,6-dioxopiperidin-3-yl)-6-fluoroisoindoline-1,3-dione]
8430 ng·h/mL	≥ 10000 nM	< 100 nM	84 nM	COc1cc(N2CCC(CN3CCC4(CCCN(c5ccc6c(c5)C(=O)N(C5CCC(=O)NC5=O)C6=O)C4)CC3)CC2)c(-c2cnn(C)c2)cc1Nc1ncc(Cl)c(Nc2ccc(-c3ccccc3)cc2P(C)(C)=O)n1 (stereo not drawn) [Compound 89, 5-(9-((1-(4-((5-chloro-4-((3-(dimethylphosphoryl)-[1,1′-biphenyl]-4-yl)amino)pyrimidin-2-yl)amino)-5-methoxy-2-(1-methyl-1H-pyrazol-4-yl)phenyl)piperidin-4-yl)methyl)-2,9-diazaspiro[5.5]undecan-2-yl)-2-(2,6-dioxopiperidin-3-yl)isoindoline-1,3-dione]
4620 ng·h/mL	≥ 10000 nM	< 100 nM	49 nM	COc1cc(N2CCC(N3CCN(CC4CCN(c5cc6c(cc5F)C(=O)N(C5CCC(=O)NC5=O)C6=O)CC4)CC3)CC2)c(-c2cnn(C)c2)cc1Nc1ncc(Cl)c(Nc2ccc(-c3ccccc3)cc2P(C)(C)=O)n1 (stereo not drawn) [Compound 93, 5-(4-((4-(1-(4-((5-chloro-4-((3-(dimethylphosphoryl)-[1,1′-biphenyl]-4-yl)amino)pyrimidin-2-yl)amino)-5-methoxy-2-(1-methyl-1H-pyrazol-4-yl)phenyl)piperidin-4-yl)piperazin-1-yl)methyl)piperidin-1-yl)-2-(2,6-dioxopiperidin-3-yl)-6-fluoroisoindoline-1,3-dione]
20800 ng·h/mL	≥ 10000 nM	< 100 nM	49 nM	COc1cc(N2CCC(CN3CCC4(CC3)CCN(c3ccc5c(c3)C(=O)N(C3CCC(=O)NC3=O)C5=O)CC4)CC2)c(-c2cnn(C)c2)cc1Nc1ncc(Br)c(Nc2ccc(-c3ccccc3F)cc2P(C)(C)=O)n1 (stereo not drawn) [Compound 95, 5-(9-((1-(4-((5-bromo-4-((3-(dimethylphosphoryl)-2′-fluoro-[1,1′-biphenyl]-4-yl)amino)pyrimidin-2-yl)amino)-5-methoxy-2-(1-methyl-1H-pyrazol-4-yl)phenyl)piperidin-4-yl)methyl)-3,9-diazaspiro[5.5]undecan-3-yl)-2-(2,6-dioxopiperidin-3-yl)isoindoline-1,3-dione]

SMILES	AUC(0-t) [1]	IC50 (A431 (EGFR-WT) cells)	IC50 ([2]; read-out: IC50 (class symbol))	IC50 [2, 3]
COc1cc(N2CCC(N3CCN(C4CC5(CCN(c6ccc7c(c6)C(=O)N(C6CCC(=O)NC6=O)C7=O)CC5)C4)CC3)CC2)c(-c2cnn(C)c2)cc1Nc1ncc(Cl)c(Nc2ccc(-c3ccccc3)cc2P(C)(C)=O)n1 (stereo not drawn) [Compound 91]	7580 ng·h/mL	≥ 10000 nM	< 100 nM	78 nM
